For test [1], the system named is FcγRIIa-stimulated platelets. Description: PLCγ2 phosphorylation after FcγRIIa cross-linking. Format: cell-based, human. As to conditions: ML355 (20 μM); 15 and 30 seconds. Here is the method:
(§1) FcγRIIa-mediated platelet activation: FcγRIIa-mediated platelet activation was initiated by two distinct models; either 1) FcγRIIa antibody cross-linking or 2) CD9 monoclonal antibody stimulation. To cross-link FcγRIIa, washed platelets were incubated with IV.3, an FcγRIIa mouse monoclonal antibody, for one minute followed by the addition of a goat anti-mouse (GAM) IgG antibody to cross-link FcγRIIa. The concentration of FcγRIIa cross-linking antibodies used for each experiment is indicated in the text. Alternatively, washed human platelets were stimulated with an anti-CD9 monoclonal antibody to activate FcγRIIa mediated signaling. Due to inter-individual variability in anti-CD9 response, a range of anti-CD9 concentration (0.25-1 μg/ml) was used to achieve an aggregation of EC80. In studies using the 12-LOX inhibitor (ML355), washed platelets were incubated with either ML355 (20 μM), or DMSO (vehicle control) for 15 minutes prior to FcγRIIa stimulation.
PLCγ2 phosphorylation: Washed human platelets were adjusted to 5×10^8 platelets/mL and stimulated in an aggregometer by antibody cross-linking of FcγRIIa and lysed at designated times with 5× reducing buffer to stop the reaction. Samples were separated on a 7.5% SDS-PAGE gel. Antibodies to PLCy2 and phospho-Y759 PLCy2, a marker of PLCy2 activation, were used to evaluate the relative levels of total and active PLCy2, respectively.

In another test the test system is washed human platelets. Put plainly: PAR4-AP-induced calcium mobilization. The class given is cell-based. As to conditions: 200 μM PAR4-AP; increasing concentrations. The protocol: Blood was centrifuged at 200 g for 13 min at room temperature.
(In general: Calcium assays in cells follow changes in intracellular calcium, usually with a dye or a luminescent sensor.)

Test [2] deals with FcγRIIa-stimulated platelets. Put plainly: Rap1 activation after FcγRIIa stimulation. Format: cell-based, human. As to conditions: ML355 pre-treatment.
Description: (§2) Preparation of washed human platelets: Prior to blood collection written informed consent was obtained from all volunteers. Washed platelets were isolated from the blood of healthy volunteers as previously described (14). Washed platelets were resuspended in tyrodes buffer at 3.0×10^8 platelets/mL unless otherwise indicated.
as §1, with “FcγRIIa stimulation. […]” for “FcγRIIa stimulation.”

In test [3] the test system is FcγRIIa-stimulated platelets. Description: Dense granule secretion (ATP release) after FcγRIIa stimulation. As to conditions: compared with DMSO treated platelets. Format: cell-based, human.
Description: as §2
as §1, with “In studies using the 12-LOX inhibitor (ML355), washed platelets were incubated with either ML355 (20 μM), or DMSO (vehicle control) for 15 minutes prior to FcγRIIa stimulation.” left out
Dense granule secretion: ATP release was measured from washed platelets as surrogate for dense granule secretion. […] Platelets were stimulated with FcγRII antibody cross-linking under stirring conditions and fluorescence was measured in real-time using a lumi-aggregometer.

The test system of test [4] is human primary donor islets. Description: Human Islet (12-HETE Inhibition) Assay. Format: cell-based. As to conditions: 10 μM.
Test [5] concerns FcγRIIa-stimulated platelets. Put plainly: FcγRIIa phosphorylation (immunoprecipitation, Western blot). The class given is cell-based, human. As to conditions: ML355 (20 μM); IV.3+GAM. Here is the method: FIGS. 15A-15B show the role of 12-LOX in regulating the FcγRIIa signaling complex. Washed human platelets were pre-treated with ML355 (20 μM) or vehicle control prior to IV.3 and GAM stimulation. (FIG. 15A) Immunoprecipitation of FcγRIIa at 15, 30, and 60 seconds post crosslinking and measured for phosphorylation via Western blot. (FIG. 15B) Platelets were lysed following FcγRIIa cross-linking in the presence of ML355 or DMSO were immunoblotted for active (pY323) and total Syk.
To investigate whether 12-LOX directly regulated FcγRIIa phosphorylation, FcγRIIa was immunoprecipitated from IV.3+GAM-stimulated platelets treated with ML355 or DMSO and immunoblotted for phosphorylation of FcγRIIa.
as §1, with “Due to inter-individual variability in anti-CD9 response, a range of anti-CD9 concentration (0.25-1 μg/ml) was used to achieve an aggregation of EC80. In studies using the 12-LOX inhibitor (ML355), washed platelets were incubated with either ML355 (20 μM), or DMSO (vehicle control) for 15 minutes prior to FcγRIIa stimulation.” left out

As to `COc1cccc(CNc2ccc(S(=O)(=O)Nc3nc4ccccc4s3)cc2)c1O` [Compound 35, N-(benzo[d]thiazol-2-yl)-4-((2-hydroxy-3-methoxybenzyl)amino)benzenesulfonamide], in test [1], the PLCγ2 phosphorylation result is “attenuated PLCy2 phosphorylation at 15 and 30 seconds”. Further, in the test on washed human platelets, the “PAR4-AP-induced calcium mobilization (in words)” value is reported as “Calcium mobilization was decreased”. Also, in test [2], the Rap1 activation entry was “failed to activate Rap1”. In test [3], the “ATP release (dense granule secretion)” value is “significant decrease in ATP release”. In test [4], the “AA/IONO-induced 12-HETE production in human islets” value is “significant inhibition of AA/IONO-induced 12-HETE production”. For the same molecule, the FcγRIIa phosphorylation result in test [5] was “No difference in FcγRIIa phosphorylation”.

For the origin of these results see patent US10752581B2, “4-((2-hydroxy-3-methoxybenzyl)amino)benzenesulfonamide derivatives as potent and selective inhibitors of 12-lipoxygenase” (Eastern Virginia Medical School, priority 2013, dated 2020).
